These results are taken from patent US20240182495A1, “ANTIBACTERIAL COMPOUNDS” (JANSSEN SCIENCES IRELAND UNLIMITED COMPANY, priority 2021, published 2024).

Marks after values point to notes of the source that are not given here. A value given as a limit tells only on which side of the number the result lay.

The test system of one assay is Mycobacterium tuberculosis strain (EH4.0, GFP-expressing; Test 2: H37Rv). In words: MIC determination against M. tuberculosis, Test 1 (and/or Test 2). The assay is classed as cell-based. The following applies: 7 days incubation, fluorescence.
With `CCc1nc2ncc(C)cn2c1C(=O)NC1(c2ccc(-c3nc4n(n3)CCN(S(=O)(=O)C(F)(F)F)C4)cc2)CC1` [Compound 68], the pIC50 is recorded as <6.3*. With `CCc1nc2cc(Cl)c(C)cn2c1C(=O)NCc1cnc(-c2nc3n(n2)CCN(S(=O)(=O)C(F)(F)F)C3)c(F)c1` [Compound 19], the pIC50 is on record as 6.48.

The assay is the same for the next values; noted with them: Mycobacterium tuberculosis, H37RV, 168 h, 7 days incubation, fluorescence.
`CCc1nc2ncc(C)cn2c1C(=O)NCc1ccc(C2CN(c3nc4n(n3)CCN(S(=O)(=O)C(F)(F)F)C4)C2)cc1` [Compound 58] showed an IC50 of 123 nM. As to `CCc1nc2ncc(C3CC3)cn2c1C(=O)NCc1ccc(-c2nc3n(n2)CCN(S(=O)(=O)C(F)(F)F)C3)cc1` [Compound 28], the IC50 was 53.7 nM. `CCc1nc2ncc(C)cn2c1C(=O)NCc1ccc(-c2nc3n(n2)CCN(S(=O)(=O)N(C)C)C3)cc1` [Compound 41] showed an IC50 of 45.7 nM. The IC50 values of the last two compounds are within 1.5-fold of each other.

As to `CCc1nc2ncc(C)cn2c1C(=O)NCc1cccc(-c2nc3n(n2)CCN(S(=O)(=O)C(F)(F)F)C3)c1` [Compound 67], the IC50 is 162 nM. As for `CCc1nc2ncc(C)cn2c1C(=O)NCc1csc(-c2nc3n(n2)CCN(S(=O)(=O)C(F)(F)F)C3)n1` [Compound 73], the IC50 was more than 501 nM. `CCc1nc2ccc(C)cn2c1C(=O)NCc1ccc(-c2nc3n(n2)CCNC3)cc1` [Compound 52] had a concentration for half-maximal inhibition (IC50) of 209 nM. `CCc1nc2ncc(C)cn2c1C(=O)NCc1ccc(N2CCC(c3nc4n(n3)CCN(S(=O)(=O)C(F)(F)F)C4)CC2)cc1` [Compound 60] showed an IC50 of 93.3 nM. Compound `Cc1ccc2nc(C)c(C(=O)NCc3ccc(-c4nc5n(n4)CCN(S(=O)(=O)C(F)(F)F)C5)cc3)n2c1` [Compound 34] gave an IC50 of 12.6 nM.

As for `CCc1nc2ncc(Cl)cn2c1C(=O)NCc1ccc(-c2nc3n(n2)CCN(S(=O)(=O)C(F)(F)F)C3)c(F)c1` [Compound 4], 12.6 nM corresponded to half-maximal inhibition (IC50). Compound `Cc1ccc2nc(C3CC3)c(C(=O)NCc3ccc(-c4nc5n(n4)CCN(S(=O)(=O)C(F)(F)F)C5)cc3)n2c1` [Compound 30] showed an IC50 of 41.7 nM.

`CCc1nc2ncc(F)cn2c1C(=O)NCc1ccc(-c2nc3n(n2)CCN(S(=O)(=O)C(F)(F)F)C3)c(F)c1` [Compound 17]: half-maximal inhibition (IC50) was put at 195 nM. Against the preceding compound, the IC50 is about 4.7-fold higher.

For the compound `CCc1nc2ncc(C)cn2c1C(=O)NCc1nnc(-c2nc3n(n2)CCN(S(=O)(=O)C(F)(F)F)C3)s1` [Compound 76], the IC50 is more than 501 nM.

In turn, `CCc1nc2ncc(Cl)cn2c1C(=O)NCc1cnc(-c2nc3n(n2)CCN(S(=O)(=O)C(F)(F)F)C3)c(F)c1` [Compound 77] had an IC50 of 457 nM. That is a sub-micromolar value. `CCc1nc2c(F)cc(Cl)cn2c1C(=O)NCc1ccc(-c2nc3n(n2)CCN(S(=O)(=O)C(F)(F)F)C3)cc1` [Compound 21] gave an IC50 of 40.7 nM. The compound `CCc1nc2cc(OC)c(Cl)cn2c1C(=O)NCc1cnc(-c2nc3n(n2)CCN(S(=O)(=O)C(F)(F)F)C3)c(F)c1` [Compound 16] had an IC50 of 501 nM. On the same count and under the same terms, in the case of `Cc1cn2c(C(=O)NCc3ccc(-c4nc5n(n4)CCN(S(=O)(=O)C(F)(F)F)C5)cc3)c(C)nc2s1` [Compound 32] it was 60.3 nM.

Turning to `CCc1nc2n(c1C(=O)NCc1ccc(-c3nc4n(n3)CCN(S(=O)(=O)C(F)(F)F)C4)cc1)CCOC2` [Compound 63], the IC50 is 191 nM. The same measure, in the same setting: in the case of `CCc1nc2ccc(C)cn2c1C(=O)NCc1ccc(-c2nc3n(n2)CCN(C(C)=O)C3)cc1` [Compound 46] it was 282 nM; in that of `CCc1nc2ccc(C)cn2c1C(=O)NCc1ccc(-c2nc3n(n2)CCN(S(=O)(=O)N2CCCC2)C3)cc1` [Compound 48], 25.7 nM; in that of `CCc1nc2sc(C)cn2c1C(=O)NCc1ccc(-c2nc3n(n2)CCN(S(=O)(=O)C(F)(F)F)C3)cc1` [Compound 36], 16.2 nM. In turn, `CCc1nc2ncc(C)cn2c1C(=O)NCc1ccc(-c2nc3n(n2)CCN(C)C3)cc1` [Compound 50] had an IC50 of 170 nM.

Regarding `CCc1nc2ccc(Cl)cn2c1C(=O)NCc1ccc(-c2nc3n(n2)CCN(S(=O)(=O)C(F)(F)F)C3)c(F)c1` [Compound 3], the IC50 is 61.7 nM.

By pIC50 is commonly meant the negative decadic logarithm of the IC50, by convention in mol/L. A lower pIC50 goes with a large IC50. What is called IC50 is the concentration that inhibits the measured activity by half. Low values mean higher potency, high ones lower potency.
